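Assay format: 96-well plates, 48-hour exposure. Abbreviation: GI50, concentration required for 50% inhibition of growth. TGI marks complete inhibition of growth.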

What all share (assay): NCI anticancer screen, dose series, 48 h
For assay [1], the system named is SK-MEL-5 melanoma.
The test system of assay [2] is HOP-62 NSCLC.
For assay [3], the system named is IGROV1 ovarian.
Assay [4] deals with KM12 colon.
The subject of assay [5] is OVCAR-8 ovarian.
In assay [6] the test system is UO-31 renal.
Assay [7] deals with U251 CNS.
In assay [8] the test system is T-47D breast.

As for `Fc1ccc(Nc2ccnc(N3CCN(c4ccnc5cc(Cl)ccc45)CC3)n2)cc1`, the GI50 was 1.53 µM in assay [1]; 3.83 µM in assay [2]; 3.38 µM in assay [3]; 2.33 µM in assay [4]; 2.16 µM in assay [5]; 0.845 µM in assay [6]. In addition, the GI50 in assay [7] was 1.87 µM. For the same compound, the TGI stood at 2.96 µM in assay [1]; 65.4 µM in assay [2]; 30.9 µM in assay [3]; 6.66 µM in assay [4]; 6.12 µM in assay [5]; 4.54 µM in assay [6]. Also, the TGI in assay [7] is 5.27 µM.

In the case of `Cc1cc(S(=O)(=O)Nc2nc3ccccc3s2)c(SCc2ccccc2)cc1Cl`, the GI50 in assay [1] was 12.5 µM; in assay [2] it was 31.6 µM; in assay [3], 27.4 µM; in assay [4], 18.8 µM; in assay [5], 17 µM; in assay [6] it was 19.4 µM. Besides, in assay [7], the GI50 was 13.6 µM. For the same compound, the TGI in assay [1] was 25 µM; in assay [2] it was over 100 µM; in assay [3], 94.3 µM; in assay [4], 61.9 µM; in assay [5], 44.9 µM; in assay [6] it was 45.9 µM. This compound gave a TGI in assay [7] of 26.4 µM.

On to `OCC1OC(N2CCN(C3OC(CO)C(O)C(O)C3O)CC2)C(O)C(O)C1O` (configuration not stated), for which the TGI in assay [1], in assay [2], in assay [8], in assay [3], in assay [4] and in assay [5] was over 100 µM each time. Besides, the TGI in assay [6] and in assay [7] was over 100 µM throughout.

On to `C[C@H]1O[C@@H](O[C@H]2[C@@H](O)C[C@H](O[C@H]3[C@@H](O)C[C@H](O[C@H]4CC[C@]5(C)C6CC[C@]7(C)[C@@H](C8=CC(=O)OC8)CC[C@]7(O)C6CC[C@@H]5C4)O[C@@H]3C)O[C@@H]2C)C[C@H](O)[C@@H]1O` (some centres not stated), for which the GI50 in assay [1] is 0.0156 µM; in assay [2], 0.0118 µM; in assay [8] it was 0.0172 µM; in assay [3], 0.0261 µM; in assay [4], 0.0247 µM; in assay [5], 0.0178 µM. The GI50 in assay [6] is 0.0181 µM; in assay [7], 0.0186 µM. Further, the TGI in assay [1] was 0.0493 µM; in assay [2], 0.0295 µM; in assay [8], 0.0608 µM; in assay [3], 2.22 µM; in assay [4], 0.103 µM; in assay [5], 0.0648 µM. In addition, the TGI in assay [6] stood at 0.0722 µM; in assay [7] it was 0.0676 µM.

Regarding `COc1cc(-c2cc(-c3ccc(Nc4nc(Nc5ccc(Cl)cc5)nc(Nc5ccc(Cl)cc5)n4)cc3)no2)cc(OC)c1OC`, the GI50 in assay [1] is 4.47 µM; in assay [2], 11 µM; in assay [8] it was 3.15 µM; in assay [3], 3.22 µM; in assay [4], 14.2 µM; in assay [5], 36 µM. Besides, the values for the GI50 in assay [6] and in assay [7] were 6 µM and 11.4 µM, respectively. The TGI in assay [1] was 58.1 µM; in assay [2], 84.2 µM; in assay [8] it was over 100 µM; in assay [3] it was over 100 µM; in assay [4] it was over 100 µM; in assay [5], over 100 µM. In addition, the TGI in assay [6] and in assay [7] was over 100 µM in each case.

`CC(=O)Nc1ccc2c(c1)[nH]c(=O)c1cc(NC(C)=O)ccc12`: the GI50 in assay [1], in assay [2], in assay [8], in assay [3], in assay [4] and in assay [5] was over 100 µM throughout. Also, the GI50 in assay [6] is over 100 µM; in assay [7] it was 52 µM. Further, the TGI in assay [1], in assay [2], in assay [8], in assay [3], in assay [4] and in assay [5] was over 100 µM each time. The TGI in assay [6] and in assay [7] was over 100 µM throughout.

Turning to `COC1C[C@H](O[C@@H]2C[C@H](O[C@@H]3C[C@H](O[C@@H]4C(=O)c5c(cc6cc(O[C@H]7C[C@@H](O[C@H]8C[C@@H](O)[C@H](O)C(C)O8)[C@H](O)C(C)O7)c(C)c(O)c6c5O)C[C@H]4C(OC)C(=O)[C@@H](O)[C@@H](C)O)OC(C)[C@H]3O)OC(C)[C@@H]2O)OC(C)[C@@H]1O` (some centres not stated), the GI50 in assay [1] is 0.0641 µM; in assay [2] it was 0.0752 µM; in assay [8], 0.0701 µM; in assay [5], 0.108 µM; in assay [6], 0.294 µM; in assay [7], 0.0631 µM. Also, the TGI in assay [1] was 0.175 µM; in assay [2] it was over 32.5 µM; in assay [8] it was 7 µM; in assay [5], over 32.5 µM; in assay [6], 4.76 µM; in assay [7] it was 29.6 µM.

On to `CN(N=O)N1C(=O)SCC(c2ccccc2)(c2ccccc2)C1=O`, for which the TGI is over 100 µM in assay [1]; over 100 µM in assay [2]; over 100 µM in assay [8]; over 100 µM in assay [4]; 60.2 µM in assay [5]; over 100 µM in assay [6]. The compound also had a TGI in assay [7] of over 100 µM.

In the case of `CCCCCCCN(CCCCCCC)C(=N)c1ccc(OC)c2ccccc12`, the GI50 in assay [1] is 1.58 µM; in assay [2], 1.3 µM; in assay [8], 1.56 µM; in assay [3], 1.1 µM; in assay [5] it was 1.41 µM; in assay [6], 0.971 µM. For the same compound, the GI50 in assay [7] was 1.39 µM. The TGI in assay [1] is 3.01 µM; in assay [2], 2.79 µM; in assay [8], 3.33 µM; in assay [3] it was 2.7 µM; in assay [5], 3.04 µM; in assay [6], 2.36 µM. The same compound came in with a TGI in assay [7] of 2.81 µM.

As to `O=C(Nc1cccc(Cl)c1)Nc1cc(C(F)(F)F)ccc1Cl`, the GI50 in assay [1] is 1.92 µM; in assay [2] it was 2.72 µM; in assay [8], 3.53 µM; in assay [4] it was 2.65 µM; in assay [5], 3.16 µM; in assay [7], 3.32 µM. The TGI in assay [1] was found to be 3.51 µM; in assay [2], 9.23 µM; in assay [8] it was 31.3 µM; in assay [4], 6.98 µM; in assay [5], 7.75 µM; in assay [7], 8.56 µM.

Turning to `CN1c2cccc[c]2[Sn]([CH3])([CH3])[c]2ccccc21`, the GI50 in assay [1] was under 0.01 µM; in assay [2], under 0.0137 µM; in assay [3] it was under 0.0166 µM; in assay [4] it was under 0.01 µM; in assay [5], under 0.0134 µM; in assay [6], 0.0374 µM. In assay [7], the GI50 is under 0.016 µM. The TGI in assay [1] was 0.023 µM; in assay [2] it was 0.0714 µM; in assay [3], 0.14 µM; in assay [4], under 0.0169 µM; in assay [5] it was under 0.023 µM; in assay [6], 0.182 µM. In assay [7], the TGI was found to be 0.134 µM.

For the compound `Oc1ccc(Cl)cc1N=Nc1c(O)ccc2ccccc12`, the TGI in assay [1], in assay [2], in assay [3], in assay [4], in assay [5] and in assay [6] was over 100 µM each time. In assay [7], this compound returned a TGI of over 100 µM.

Turning to `c1ccc2cc(Cn3c(-c4cccc5ccccc45)[n+](Cc4ccc5ccccc5c4)c4c5ccccc5c5ccccc5c43)ccc2c1`, the GI50 was 0.179 µM in assay [1]; 0.387 µM in assay [2]; 0.269 µM in assay [8]; 0.285 µM in assay [4]; 0.332 µM in assay [5]; 0.165 µM in assay [7]. For the same compound, the TGI in assay [1] came to 0.338 µM; in assay [2], 2.45 µM; in assay [8], 1.7 µM; in assay [4], 1.2 µM; in assay [5], 1.92 µM; in assay [7], 1.42 µM.

Consider `[N-]=[N+]=NCCCn1c2c(c3ccccc3c1=O)C(=O)c1cc3c(cc1-2)OCO3`, for which the GI50 was 45.6 µM in assay [1]; 17.6 µM in assay [2]; 47.3 µM in assay [3]; over 100 µM in assay [4]; over 100 µM in assay [5]; over 100 µM in assay [6]. For the same compound, in assay [7], the GI50 is 28.7 µM. Besides, the TGI in assay [1], in assay [2], in assay [3], in assay [4], in assay [5] and in assay [6] was over 100 µM each time. In assay [7], this compound registered a TGI of over 100 µM.

On to `CC#CC#C/C=C1/C=CC2(CCCCO2)O1` (configuration not stated), for which the TGI in assay [1], in assay [8], in assay [3], in assay [4], in assay [5] and in assay [6] was over 100 µM each time. In assay [7], the TGI is over 100 µM.

In the case of `Cn1cc(-c2nc(-c3c[nH]c4ccccc34)cs2)c2cccnc21`, the GI50 was 0.255 µM in assay [1]; 0.626 µM in assay [2]; 1.13 µM in assay [3]; 0.314 µM in assay [4]; 0.689 µM in assay [5]; 0.649 µM in assay [6]. In addition, in assay [7], the GI50 is 0.432 µM. For the same compound, the TGI in assay [1] is 16.1 µM; in assay [2], 59.9 µM; in assay [3], over 100 µM; in assay [4] it was 22.8 µM; in assay [5], over 100 µM; in assay [6], over 100 µM. Also, in assay [7], the TGI is over 53.9 µM.
